# PubChem BioAssay AID2742 (NMMLSC, 2010)
# Several values for one entry are separate records, joined by “and”; a condition that tells them apart may be missing. Equal values may be shown once. Activity calls are given as the source filed them.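 How the source made its calls: active means fitted half-maximal concentration for changing background-corrected GFP signal at or below a set limit; inactive means the rest.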
# Assay: modulators of MEP2-GFP levels in yeast, dose response, S. cerevisiae, flow cytometry GFP, MLPCN hits (AID 2742);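 further: GFP tag reports level of MEP2 protein as a downstream target of TOR signalling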
# Details: S. cerevisiae MEP2-GFP strain, flow cytometry fluorescence, 3 h; at 33 µM (top of the series)
row,Structure (SMILES),"GFP fluorescence (kMESF), higher = increase"
1,CCc1nc2ccccc2c(=O)n1NC(=O)c1c(O)c2cccc3c2n(c1=O)CCC3,1.72 kMESF (inactive)
2,COc1ccc(/C=C2\C(=O)ON=C2c2ccccc2)cc1,4.38 kMESF (inactive)
3,CC[C@]1(c2ccccc2OC)ON(c2ccccc2C(F)(F)F)C1=O,4.31 kMESF (inactive)
4,O=C(CCc1ccccc1)NNC(=S)NC(=O)c1ccccc1,5.56 kMESF (inactive)
5,CC(=O)CSc1ncnc2c1cnn2-c1ccccc1,2.5 kMESF (inactive)
6,CC(=O)c1ccc(N2CCN(C(=O)c3ccc(Br)cc3)CC2)c(F)c1,2.85 kMESF (inactive)
7,O=C(/C=C/c1cc(Br)ccc1O)c1ccco1,6.67 kMESF (inactive)
8,COc1cccc(/C=C/C(=O)c2c(O)cc(C)oc2=O)c1O,4.26 kMESF (inactive)
9,CC1(C(=O)NC(=S)NNC(=O)c2ccncc2)CCCCC1,3.51 kMESF (inactive)
10,Cc1ccc(C)c(/C=C/C(=O)c2ccccc(=O)c2O)c1,-0.95 kMESF (inactive)
11,Cc1ccc(S(=O)(=O)c2ncccc2[N+](=O)[O-])cc1,3.64 kMESF (inactive)
12,COc1cccc(/C=N/Nc2ccc([N+](=O)[O-])cn2)c1O,3.24 kMESF (inactive)
13,Cc1ccccc1N1C(=O)C(Cl)=C(N2CCN(c3ccccc3)CC2)C1=O,2.9 kMESF (inactive)
14,O=C(/C=C/c1ccccc1Cl)c1ccccc(=O)c1O,-0.57 kMESF (inactive)
15,Cc1ccc(C(=O)O)cc1N=Cc1cc(Br)cc(Br)c1O,5.7 kMESF (inactive)
16,COc1cc(/C=C2\C(=O)N(CCC#N)N=C2C)c(Br)cc1OC(C)C,4.57 kMESF (inactive)
17,Cc1ccc(C(=O)Oc2oc(-c3ccco3)nc2C=Nc2ccc(Cl)cc2)cc1,3.92 kMESF (inactive)
18,O=C1c2cccc3c([N+](=O)[O-])ccc(c23)C(=O)N1O,22.1 kMESF (inactive)
19,O=S(=O)(CCN(CCS(=O)(=O)C(F)(F)F)CC1CCCO1)C(F)(F)F (stereo unspecified),4.69 kMESF (inactive)
20,NC(=O)COc1ccc(C(=O)/C=C2/C(=O)Nc3ccccc32)cc1,3.66 kMESF (inactive)
21,O=c1[nH]c(-c2ccccn2)nc(C(F)(F)F)c1Br,4.02 kMESF (inactive)
22,O=C(Nc1ccc(Cl)cc1)ON=C1CCCC1,4.17 kMESF (inactive)

row,Structure (SMILES),"GFP fluorescence (kMESF), higher = increase"
1,C#CCOCCOCCOCCNc1nc(N2CCN(C(=O)CCCCCCCCCCNC(=O)[C@H](CCCCN)n3cc(CCO)nn3)CC2)nc(N2CCN(C(=O)CCCCCCCCCCNC(=O)[C@H](CCCCN)n3cc(C[C@@H](C)CC)nn3)CC2)n1,3.23 kMESF (inactive)
2,CCOc1ccc(C(C)=O)cc1N1C(=O)C2C3C=CC(O3)C2C1=O (stereo unspecified),3.31 kMESF (inactive)
3,CC(Oc1ccc2ccccc2c1)C(=O)NNC(=S)NC(=O)c1ccco1 (stereo unspecified),4.16 kMESF (inactive)
4,Cc1ccnc(N2C(=O)c3cccc4c([N+](=O)[O-])ccc(c34)C2=O)c1,24.6 kMESF (inactive)
5,O=C1C=CC(=O)N1N(c1ccccc1)c1ccccc1,4.7 kMESF (inactive)
6,Cc1ccc(C2=NN(S(C)(=O)=O)C(c3ccc4c(c3)OCO4)C2)cc1 (stereo unspecified),2.44 kMESF (inactive)
7,Cc1ccc(/C=C2\C(=O)NC(=S)N(c3ccccc3F)C2=O)s1,4.49 kMESF (inactive)
8,O=C1c2ccccc2C(=O)C2OC12 (stereo unspecified),3.37 kMESF (inactive)
9,Cc1cc(C)c(S(=O)(=O)ON2C(=O)c3ccccc3C2=O)cc1C,3.17 kMESF (inactive)
10,Cc1c(NC2=C(Cl)C(=O)N(c3ccccc3Cl)C2=O)c(=O)n(-c2ccccc2)n1C,1.97 kMESF (inactive)
11,O=C1NC(=S)NC(=O)C1=Cc1ccc2c(c1)CCN2CCCCl,4.18 kMESF (inactive)
12,O=c1c(-c2ccc(Cl)cc2)[n+]([O-])c2ccccc2n1O,24.9 kMESF (inactive)
13,O=C(CSC1=NS(=O)(=O)c2ccccc21)Nc1ccccc1,2.66 kMESF (inactive)
14,Cc1[nH]c(-c2ccccn2)nc(=S)c1Cl,4.24 kMESF (inactive)
15,CCCc1cc(N2CCN(c3ccccn3)CC2)n2nc(C)c(-c3ccccc3)c2n1,3.11 kMESF (inactive)
16,CC1=C/C(=N\OS(=O)(=O)c2ccccc2)C(C)=CC1=O,-2.25 kMESF (inactive)
17,CC(C)CC(=O)NC(=S)Nc1nc(-c2ccccc2)cs1,2.07 kMESF (inactive)
18,CC(C)(C)n1nc(-c2ccc(Cl)cc2)c2c(N)ncnc21,6.05 kMESF (inactive)
19,O=C(/C=C/c1ccc(F)cc1)NC(=S)NNC(=O)c1cnccn1,4.9 kMESF (inactive)
20,O=C(C#Cc1cccc([N+](=O)[O-])c1)c1ccccc1,3.98 kMESF (inactive)
21,CC(=O)Oc1oc(-c2ccccc2)nc1C=Nc1ccccc1,3.71 kMESF (inactive)
22,Nc1ccccc1C#CC(=O)c1ccccc1,6.68 kMESF (inactive)

row,Structure (SMILES),"GFP fluorescence (kMESF), higher = increase"
1,Cc1ccc(NC(=O)c2cc(N3C(=O)C=CC3=O)ccc2Cl)cc1C,5.17 kMESF (inactive)
2,COc1cc(CNC(=O)CCCCCCC(C)C)ccc1O,2.32 kMESF (inactive)
3,N/C(Cc1ccc(Cl)cc1Cl)=N\OC(=O)c1ccccc1,2.82 kMESF (inactive)
4,CCn1c(=O)c(C(C)=O)c(O)c2ccccc21,3.81 kMESF (inactive)
5,COc1ccc(/C=C/C(=O)NC(=S)NNC(=O)c2cnccn2)cc1,3.67 kMESF (inactive)
6,CC[C@]1(c2ccccc2C)ON(c2ccccc2C(F)(F)F)C1=O,1.97 kMESF (inactive)
7,Cc1ccc(N/N=C(\C#N)C(N)=S)c(C)c1,4.52 kMESF (inactive)
8,C=CCN1C(=O)/C(=C/c2cccs2)C(=O)NC1=S,3.81 kMESF (inactive)
9,C=CCOc1cccc(C(=O)/C=C2/C(=O)Nc3ccccc32)c1,3.41 kMESF (inactive)
10,O=C(O)C1Sc2[nH]c(=O)sc2C2c3cc(Br)ccc3OC(=O)C12 (stereo unspecified),4.8 kMESF (inactive)
11,Cc1cc(=O)n2c3c(sc2n1)C(=O)N(Cc1ccccc1)C3=O,2.89 kMESF (inactive)
12,COc1ccc([C@@]2(C(C)C)ON(c3ccccc3C(F)(F)F)C2=O)cc1,3.06 kMESF (inactive)
13,Clc1cnc(N/N=C/c2cccs2)c(Cl)c1,2.89 kMESF (inactive)
14,Cc1ccc(/C=N/Nc2ncc(Cl)cc2Cl)s1,4.77 kMESF (inactive)
15,CCC(C)/C(C)=N/NC(=O)c1ccc(COc2ccc(Cl)c(C)c2)cc1 (stereo unspecified),2.48 kMESF (inactive)
16,Cc1ccsc1/C=N/Nc1ncc(Cl)cc1Cl,5.19 kMESF (inactive)
17,O=C(/C=C/c1ccnc2ccccc12)c1cccs1,4.23 kMESF (inactive)
18,Nc1nc2ncc(CNc3ccc(C(=O)N[C@@H](CCC(=O)O)C(=O)O)cc3)nc2c(=O)[nH]1,1.95 kMESF (inactive)
19,O=[N+]([O-])c1ccc(O)c2ncccc12,3.94 kMESF (inactive) and 3.38 kMESF (inactive)
20,O=C1NC(=O)N(c2ccccc2)C(=O)/C1=C/c1ccc(Sc2ccccc2)o1,4.03 kMESF (inactive)
21,CC(C)(C)C(=O)NC(=S)NNC(=O)c1ccc(-c2ccccc2)cc1,3.92 kMESF (inactive)
22,Cc1cccc2c1NC(=O)/C2=C\C(=O)c1cccs1,4.26 kMESF (inactive)

row,Structure (SMILES),"GFP fluorescence (kMESF), higher = increase"
1,COc1cc(C=C2C(=O)c3ccccc3C2=O)cc(OC)c1OC,2.43 kMESF (inactive)
2,O=C(/C=C/c1ccc(Br)cc1)NC(=S)NNC(=O)c1ccco1,3.07 kMESF (inactive)
3,CCCCC(=O)NNC(=S)NC(=O)c1ccc(C)cc1,4.34 kMESF (inactive)
4,Cc1[nH]n(-c2ccccc2)c(=O)c1C(c1ccccc1[N+](=O)[O-])C(C#N)C#N (stereo unspecified),4.8 kMESF (inactive)
5,O=C(Nc1ccc(Cl)cc1Cl)c1cccc(N2C(=O)C=CC2=O)c1,4.39 kMESF (inactive)
6,Oc1c(I)cc(Cl)c2cccnc12,5.67 kMESF (inactive)
7,C=CCOc1ccccc1C(=O)/C=C1/C(=O)Nc2ccccc21,3.91 kMESF (inactive)
8,N#Cc1cc([N+](=O)[O-])c(-n2nnc3ccccc32)c([N+](=O)[O-])c1,3.54 kMESF (inactive)
9,Cc1cc(C)nc(S/C=C/C(=O)c2ccccc2)n1,3.2 kMESF (inactive)
10,Cc1ccc(S(=O)(=O)c2ccc([N+](=O)[O-])cn2)cc1,5.31 kMESF (inactive)
11,CC(OC(=O)c1ccco1)C(=O)Nc1nc(-c2ccccc2)cs1 (stereo unspecified),2.67 kMESF (inactive)
12,Oc1ccc(N=Nc2ccccc2)o1,4.33 kMESF (inactive)
13,COc1ccc(C(=O)/C=C2/C(=O)Nc3ccccc32)cc1OC,2.25 kMESF (inactive)
14,CCc1ccc2c(c1)/C(=C/C(=O)c1cccs1)C(=O)N2,3.95 kMESF (inactive)
15,CS(=O)(=O)c1nc(-c2ccccc2)cc(C(F)(F)F)n1,7.24 kMESF (inactive)
16,Cc1ccc(/C=C2\SC(=S)N(CC3CCCO3)C2=O)o1 (stereo unspecified),4.83 kMESF (inactive)
17,CCOc1ccc(N2C(=O)C(Cl)=C(Nc3ccccc3O)C2=O)cc1,4.31 kMESF (inactive)
18,O=C(Nc1nc(-c2ccccn2)cs1)c1cc2ccccc2o1,5.47 kMESF (inactive)
19,COc1ccc(C(=O)/C=C2/C(=O)Nc3ccccc32)cc1,4.25 kMESF (inactive)
20,COc1ccc(C2(C)ON(c3ccccc3C(F)(F)F)C2=O)cc1 (stereo unspecified),2.87 kMESF (inactive)
